Laboratory results taken from publication PMC7002685, “Inhibition of vascular calcification by inositol phosphates derivatized with ethylene glycol oligomers” (Nature Communications, 2020).

Columns and labels:
Histamine H1 = molecular target: T1, Histamine H1 (Homo sapiens, UniProt P35367); experiment: Off-target 239610; format: binding
T1 construct: purchased Eurofins Panlabs Discovery Services Taiwan, Ltd
Protocol: (§1) The potential off-target activity of 10 µM (OEG2)2-IP4 was assessed against a panel of 87 enzymes, receptors, or ion channels that are used in standard safety pharmacology screens.
(§2) 3.2. Off-target screening assay
(§3) The experiments were conducted by a contract research organization (Eurofins Panlabs Discovery Services Taiwan, Ltd.) and details on the respective assays can be retrieved via the catalog number provided in Supplementary Table 11 from the company’s webpage
(§4) (https://www.eurofinsdiscoveryservices.com/). […]
(§5) At sacrifice the left tibia of animals of the rat model with dietary adenine/high-phosphate-induced uremia and VC was collected, fixed with 70% v/v EtOH and embedded in methyl methacrylate. The trabecular bone compartment is known to be the most metabolic active i.e. actively re-structured bone compartment in CKD. Therefore, histomorphometric and micro-computed tomography (µCT) analysis of bone was performed on the trabecular compartment. Tibial sections were Goldner-stained for histomorphometric analysis of the proximal metaphysis using the AxioVision Release 4.5 software, as […]
(§6) described previously5. […]

vascular calcification = experiment: Adenine and high-phosphate-diet-induced rat model of VC; format: in vivo, male Wistar rats
Protocol: Uremia increases the risk for developing VC. Therefore, the effect of (OEG2)2-IP4 on the development of VC was investigated in a previously established adenine and high-phosphate-diet-induced rat model of VC that results in uremia and chronic renal failure. […] (OEG2)2-IP4 was administered via a s.c.-implanted osmotic pump at doses of 5, 15, or 50 mg/kg/day for 4 weeks, and treatment was initiated 1 week after the start of adenine supplementation. […] Animals in this model developed severe CKD (Supplementary Fig. 20), which was accompanied by substantial weight loss (Supplementary Fig. 21). No significant difference in the level of renal failure and body weight loss was observed between the different treatment groups, with the exception of creatinine at week 3 and serum phosphate at sacrifice in the 15 mg/kg/day group (Supplementary Fig. 20).
The inhibitory effect of (OEG2)2-IP4 on heart calcifications was significant starting at 15 mg/kg/day (Fig. 6b). The compound’s activity was also evident following von Kossa staining (Fig. 6c) on the thoracic part of the aorta, and quantification of the von Kossa-positive area (Fig. 6d). […] In the femoral artery, reduction in bulk calcium was insignificant for all tested groups, likely due to the low level of calcification detected in the vehicle control (Fig. 6f, Supplementary Table 9).
Male Wistar rats (Charles River) were housed two per cage with free access to water and standard chow and submitted to a 12-h light/dark cycle. Compounds were administered and doses calculated using the salt form. Animals were randomly assigned to four groups of 12 animals each and given a high-phosphate (1.03%) diet for 2 weeks before starting a special diet to initiate uremia. Uremia/VC was induced in all animals by freely fed diet containing high-phosphate (0.92%), low-protein (2.5% instead of 19%), and adenine (0.75%) for 4 weeks. The diet was again switched to a high-phosphate (1.03%) diet for 1 week, after which rats were sacrificed.
The first group was treated with vehicle (double distilled (d.d.) water), the second, third, and fourth groups were treated with daily doses equivalent of 5, 15, and 50 mg/kg of (OEG2)2-IP4, respectively, in 2 mL d.d. water starting 1 week after the administration of the adenine diet. Compounds were delivered continuously for 4 weeks via osmotic pumps (type 2ML4; Alzet, Cupertino, CA, USA) implanted subcutaneously under anesthesia 1 week after the start of the adenine diet. Blood sampling for serum and plasma at baseline, week 1, and week 3 was performed in restrained, conscious animals. […] Serum samples were analyzed for creatinine according to the Jaffe method, calcium (using flame atomic absorption spectrometry[74]), and phosphate (DiaSys Diagnostic Systems, Holzheim, Germany) concentrations. In serum samples taken at sacrifice, the CPP-associated calcium was quantified by calculating the difference between total serum calcium (measured in serum supernatants after centrifugation at 3000 × g, RT, 15 min) and serum calcium after removing CPPs by centrifugation (16,000 × g and 4 °C for 120 min)[26]. In addition, serum aliquots were centrifuged (10,000 × g, 4 °C, 30 min) and T50’s were determined as described above. CPP size was monitored by hourly DLS measurements at 37 °C, after spiking cleared serum samples with calcium (10 mM) and phosphate (6 mM), for a total of 8 h[29].
At sacrifice, the heart, the abdominal aorta, left carotids, and femoral arteries were collected. The presence of calcification in each animal was evaluated on paraffin-embedded, von Kossa stained sections of the thoracic aorta (as described previously[74]), as well as by measurement of the total calcium content in the heart and vascular tissue samples by flame atomic absorption spectrometry.

Glutamate, NMDA, Glycine = Glutamate, NMDA, Glycine (Rattus norvegicus, UniProt P35439); experiment: Off-target 232910; format: binding
Protocol: as §1, §2
(§7) The experiments were conducted by a contract research organization (Eurofins Panlabs Discovery
(§8) Services Taiwan, Ltd.) and details on the respective assays can be retrieved via the catalog number
(§9) provided in Supplementary Table 11 from the company’s webpage
as §4

Adrenergic β1 = molecular target: T2, Adrenergic β1 (Homo sapiens, UniProt P08588); experiment: Off-target 204010; format: binding
T2 construct: purchased Eurofins Panlabs Discovery Services Taiwan, Ltd
Protocol: as §1, §2, §3, §4, §5, §6

[1] = molecular target: T3, Leukotriene, Cysteinyl CysLT1 (Homo sapiens, UniProt Q9Y271); experiment: Off-target 250460; format: binding
T3 construct: purchased Eurofins Panlabs Discovery Services Taiwan, Ltd
Protocol: as §1, §2, §7, §8, §9, §4

[2] = molecular target: T4, Protein Tyrosine Kinase, Insulin Receptor (Homo sapiens, UniProt P06213); experiment: Off-target 174990; format: biochemical
T4 construct: purchased Eurofins Panlabs Discovery Services Taiwan, Ltd
Protocol: as §1, §2, §3, §4, §5, §6

Transporter, GABA = molecular target: T5, Transporter, GABA (Rattus norvegicus, UniProt P23978); experiment: Off-target 226400; format: binding
T5 construct: purchased Eurofins Panlabs Discovery Services Taiwan, Ltd
Protocol: as §1, §2, §3, §4, §5, §6

Cyclooxygenase COX-2 = molecular target: T6, Cyclooxygenase COX-2 (Homo sapiens, UniProt P35354); experiment: Off-target 118010; format: biochemical
T6 construct: purchased Eurofins Panlabs Discovery Services Taiwan, Ltd
Protocol: as §1, §2, §3, §4, §5, §6

[3] = system: Calcium Channel L-Type, Dihydropyridine; experiment: Off-target 214600; format: binding, Rat; details: 10 µM
Protocol: as §1, §2, §7, §8, §9, §4

[4] = PK s.c. in rats with vitamin D and warfarin-induced VC; format: in vivo; details: Sprague-Dawley, rat, plasma, sc, 50 mg/kg, 50 mg/kg s.c.

Glutamate, NMDA, Glycine, sequence (P35439 394-800 limits assumed): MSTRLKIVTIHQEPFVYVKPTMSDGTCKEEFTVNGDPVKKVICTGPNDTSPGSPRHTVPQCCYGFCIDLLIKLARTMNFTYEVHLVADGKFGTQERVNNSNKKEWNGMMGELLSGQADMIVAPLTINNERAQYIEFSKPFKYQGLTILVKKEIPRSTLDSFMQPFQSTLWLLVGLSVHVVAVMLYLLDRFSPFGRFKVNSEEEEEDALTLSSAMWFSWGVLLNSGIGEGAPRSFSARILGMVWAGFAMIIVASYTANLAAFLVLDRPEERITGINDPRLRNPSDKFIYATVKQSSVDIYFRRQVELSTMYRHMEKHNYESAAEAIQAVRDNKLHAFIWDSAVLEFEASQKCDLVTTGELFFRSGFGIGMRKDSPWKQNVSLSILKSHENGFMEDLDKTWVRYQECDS
T4 sequence (P06213 28-1382): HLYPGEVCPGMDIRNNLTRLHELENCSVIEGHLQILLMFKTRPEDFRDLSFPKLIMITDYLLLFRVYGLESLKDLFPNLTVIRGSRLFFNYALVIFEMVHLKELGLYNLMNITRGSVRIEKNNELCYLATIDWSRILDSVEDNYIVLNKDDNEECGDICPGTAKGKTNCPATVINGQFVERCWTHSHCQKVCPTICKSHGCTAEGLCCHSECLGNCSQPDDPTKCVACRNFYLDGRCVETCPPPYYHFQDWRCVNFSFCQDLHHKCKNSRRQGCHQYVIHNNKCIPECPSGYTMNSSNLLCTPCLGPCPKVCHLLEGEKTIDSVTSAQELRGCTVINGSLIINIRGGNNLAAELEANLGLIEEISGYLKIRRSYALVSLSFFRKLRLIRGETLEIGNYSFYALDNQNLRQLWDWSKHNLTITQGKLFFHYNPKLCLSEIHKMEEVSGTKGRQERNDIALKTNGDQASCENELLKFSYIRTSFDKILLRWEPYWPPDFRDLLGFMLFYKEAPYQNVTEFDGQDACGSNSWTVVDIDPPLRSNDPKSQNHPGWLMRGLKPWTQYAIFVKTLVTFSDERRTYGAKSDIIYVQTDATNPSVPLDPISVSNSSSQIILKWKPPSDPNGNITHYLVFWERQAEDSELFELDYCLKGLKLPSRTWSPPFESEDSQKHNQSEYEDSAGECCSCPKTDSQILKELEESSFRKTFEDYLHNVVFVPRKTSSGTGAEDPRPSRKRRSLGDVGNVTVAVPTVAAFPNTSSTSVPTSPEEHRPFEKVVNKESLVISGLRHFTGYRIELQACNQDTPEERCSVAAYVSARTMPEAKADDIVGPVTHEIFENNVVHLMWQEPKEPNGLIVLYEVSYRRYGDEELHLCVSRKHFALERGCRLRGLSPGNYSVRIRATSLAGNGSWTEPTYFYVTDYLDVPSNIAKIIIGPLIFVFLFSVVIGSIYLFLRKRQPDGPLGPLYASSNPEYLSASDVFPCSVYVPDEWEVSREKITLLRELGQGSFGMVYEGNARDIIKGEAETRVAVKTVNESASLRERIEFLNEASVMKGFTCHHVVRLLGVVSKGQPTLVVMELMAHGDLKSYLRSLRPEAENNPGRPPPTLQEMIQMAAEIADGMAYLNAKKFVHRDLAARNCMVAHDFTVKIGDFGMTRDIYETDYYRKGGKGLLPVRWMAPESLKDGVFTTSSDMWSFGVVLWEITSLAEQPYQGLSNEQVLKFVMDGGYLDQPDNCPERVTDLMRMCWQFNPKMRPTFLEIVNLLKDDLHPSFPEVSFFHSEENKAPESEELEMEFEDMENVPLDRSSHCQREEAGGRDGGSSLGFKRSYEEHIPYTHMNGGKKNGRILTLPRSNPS
T3 sequence (Q9Y271 whole entry): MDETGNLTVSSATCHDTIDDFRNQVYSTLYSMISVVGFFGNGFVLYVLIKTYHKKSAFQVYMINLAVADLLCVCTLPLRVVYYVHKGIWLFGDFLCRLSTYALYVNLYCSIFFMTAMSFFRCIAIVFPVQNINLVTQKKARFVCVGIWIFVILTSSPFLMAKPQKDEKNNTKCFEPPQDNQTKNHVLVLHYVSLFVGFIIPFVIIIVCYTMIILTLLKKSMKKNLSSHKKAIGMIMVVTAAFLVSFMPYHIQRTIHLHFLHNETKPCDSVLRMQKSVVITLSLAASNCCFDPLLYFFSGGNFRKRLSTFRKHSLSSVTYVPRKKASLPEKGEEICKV
T1 sequence (P35367 whole entry): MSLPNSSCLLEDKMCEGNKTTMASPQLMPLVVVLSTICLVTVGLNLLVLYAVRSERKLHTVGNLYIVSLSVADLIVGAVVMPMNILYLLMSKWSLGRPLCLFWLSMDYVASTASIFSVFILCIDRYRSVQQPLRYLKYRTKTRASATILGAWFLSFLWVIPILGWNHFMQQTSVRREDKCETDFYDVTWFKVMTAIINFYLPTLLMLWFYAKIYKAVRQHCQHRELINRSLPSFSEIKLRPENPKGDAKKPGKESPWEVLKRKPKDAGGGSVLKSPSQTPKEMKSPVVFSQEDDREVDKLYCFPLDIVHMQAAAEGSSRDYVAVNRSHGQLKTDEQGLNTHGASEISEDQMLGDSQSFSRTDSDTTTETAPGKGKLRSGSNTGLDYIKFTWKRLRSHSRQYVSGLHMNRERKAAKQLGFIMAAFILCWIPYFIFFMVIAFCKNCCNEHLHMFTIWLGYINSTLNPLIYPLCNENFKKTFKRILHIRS
T6 sequence (P35354 18-604): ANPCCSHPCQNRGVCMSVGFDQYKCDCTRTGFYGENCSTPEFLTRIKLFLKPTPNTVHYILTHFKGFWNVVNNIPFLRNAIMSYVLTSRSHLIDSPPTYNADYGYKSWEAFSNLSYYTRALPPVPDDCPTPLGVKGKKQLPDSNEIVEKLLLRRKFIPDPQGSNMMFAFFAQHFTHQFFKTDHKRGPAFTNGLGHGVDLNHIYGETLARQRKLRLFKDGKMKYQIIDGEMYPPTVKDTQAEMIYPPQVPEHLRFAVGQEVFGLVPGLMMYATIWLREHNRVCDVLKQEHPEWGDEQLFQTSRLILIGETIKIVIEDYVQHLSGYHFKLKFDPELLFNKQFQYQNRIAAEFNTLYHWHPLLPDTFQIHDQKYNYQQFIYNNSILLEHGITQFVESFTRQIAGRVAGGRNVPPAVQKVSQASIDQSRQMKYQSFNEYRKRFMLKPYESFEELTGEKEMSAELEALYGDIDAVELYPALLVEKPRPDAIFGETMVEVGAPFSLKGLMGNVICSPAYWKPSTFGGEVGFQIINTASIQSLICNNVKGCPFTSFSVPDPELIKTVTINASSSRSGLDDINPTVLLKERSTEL
T2 sequence (P08588 whole entry): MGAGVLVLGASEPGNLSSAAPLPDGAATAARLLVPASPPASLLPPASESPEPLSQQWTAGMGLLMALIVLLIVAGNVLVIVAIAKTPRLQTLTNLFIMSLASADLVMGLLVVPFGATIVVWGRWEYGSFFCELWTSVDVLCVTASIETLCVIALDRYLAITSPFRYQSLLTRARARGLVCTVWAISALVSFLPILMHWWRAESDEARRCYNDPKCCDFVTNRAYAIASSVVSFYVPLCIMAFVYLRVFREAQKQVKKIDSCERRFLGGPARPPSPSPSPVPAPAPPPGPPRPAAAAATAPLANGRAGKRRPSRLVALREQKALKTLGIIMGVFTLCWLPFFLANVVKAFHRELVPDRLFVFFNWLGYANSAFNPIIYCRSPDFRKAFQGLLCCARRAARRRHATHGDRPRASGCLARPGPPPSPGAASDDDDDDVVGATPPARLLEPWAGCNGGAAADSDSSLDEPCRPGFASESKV

Compound: COCCOCCO[C@@H]1[C@@H](OP(=O)(O)O)[C@H](OCCOCCOC)[C@@H](OP(=O)(O)O)[C@@H](OP(=O)(O)O)[C@H]1OP(=O)(O)O [(OEG2)2-IP4, 4,6-Di-O-(methoxy-diethyleneglycol)-myo-inositol-1,2,3,5-tetrakis(phosphate)]
- inhibition at 10 µM (Histamine H1): 4%
- Calcium, A. abdominialis (vascular calcification; 5 mg/kg/day): 12.71 ± 11.66 mg/g tissue
- Calcium, A. carotis (vascular calcification; 5 mg/kg/day): 11.06 ± 9.10 mg/g tissue
- Calcium, A. femoralis (vascular calcification; 5 mg/kg/day): 4.47 ± 3.95 mg/g tissue
- Calcium, Heart (vascular calcification; 5 mg/kg/day): 0.05 ± 0.03 mg/g tissue
- Von Kossa positive area in the aorta thoracalis (vascular calcification; 5 mg/kg/day): 17.86 ± 12.46%
- Mortality (animals) (vascular calcification; 5 mg/kg/day, s.c. osmotic pump, 4 weeks): 0/12
- Calcium, A. abdominialis (vascular calcification; 15 mg/kg/day): 6.24 ± 3.70 mg/g tissue
- Calcium, A. carotis (vascular calcification; 15 mg/kg/day): 5.07 ± 6.23 mg/g tissue
- Calcium, A. femoralis (vascular calcification; 15 mg/kg/day): 4.14 ± 1.92 mg/g tissue
- Calcium, Heart (vascular calcification; 15 mg/kg/day): 0.04 ± 0.01 mg/g tissue
- Mortality (animals) (vascular calcification; 15 mg/kg/day): 1/12
- Von Kossa positive area in the aorta thoracalis (vascular calcification; 15 mg/kg/day): 14.35 ± 11.49%
- Calcium, A. abdominialis (vascular calcification; 50 mg/kg/day): 1.69 ± 1.80 mg/g tissue
- Calcium, A. carotis (vascular calcification; 50 mg/kg/day): 0.84 ± 1.11 mg/g tissue
- Calcium, A. femoralis (vascular calcification; 50 mg/kg/day): 2.01 ± 1.41 mg/g tissue
- Calcium, Heart (vascular calcification; 50 mg/kg/day): 0.04 ± 0.02 mg/g tissue
- Mortality (animals) (vascular calcification; 50 mg/kg/day): 1/12
- Von Kossa positive area in the aorta thoracalis (vascular calcification; 50 mg/kg/day): 2.72 ± 5.97%
- calcification in the carotid artery compared to the 5 and 15 mg/kg/day groups (vascular calcification; 50 mg/kg/day): prevented calcification in the carotid artery
- calcemic status of the animals (vascular calcification; 50 mg/kg/day for 4 weeks): not influenced
- bulk calcium in the abdominal aorta compared to vehicle (vascular calcification; 5, 15, 50 mg/kg/day): trend in a dose-dependent reduction of bulk calcium
- reduction in bulk calcium in the femoral artery (vascular calcification; all tested groups): insignificant
- dose from which inhibitory effect on heart calcifications was significant (vascular calcification; rat, in vivo): ≥ 15 mg/kg/day
- inhibition at 10 µM (Glutamate, NMDA, Glycine): 6%
- inhibition at 10 µM (Adrenergic β1): 2%
- inhibition at 10 µM [1]: 0%
- inhibition at 10 µM [2]: -22%
- inhibition at 10 µM (Transporter, GABA): 4%
- inhibition at 10 µM (Cyclooxygenase COX-2): 8%
- % Inhibition [3]: 1%
- AUC(0-inf) ([4]; Healthy): 101 µM·h
- CL/F ([4]; Healthy): 11 ± 1 mL/min/kg
- Cmax ([4]; Healthy): 49 ± 7 µM
- half-life ([4]; Healthy (before induction of calcification)): 3.92 ± 0.267 h
- AUC(0-t) ([4]; Healthy, read-out: AUC0-1440 (converted)): 101 µM·h
- MRT last ([4]; Healthy, read-out: MRT0-1440 (converted)): 2.27 h
